Results published in ChEMBL document CHEMBL1141127, “Investigation of the binding determinants of phosphopeptides targeted to the SRC homology 2 domain of the signal transducer and activator of transcription 3. Development of a high-affinity peptide inhibitor” (J Med Chem, 2005).
Square brackets hold non-standard residues; d marks the D form. Peptide text beside a SMILES is read from it. pY = N[C@@H](Cc1ccc(OP(=O)(O)O)cc1)C(=O)O; Dip = N[C@H](C(=O)O)C(c1ccccc1)c1ccccc1; NMeL = CN[C@@H](CC(C)C)C(=O)O

What was measured:
[1] = target: T1, Signal transducer and activator of transcription 3 (Homo sapiens, UniProt P40763); assay: Inhibitory concentration against signal transducer and activator of transcription 3 (stat3) using 5-carboxyfluoresceinyl-Ala-Tyr(PO3H2)-Leu-Pro-Gln-Thr-Val-NH2 by FP assay
T1 sequence (P40763 whole entry): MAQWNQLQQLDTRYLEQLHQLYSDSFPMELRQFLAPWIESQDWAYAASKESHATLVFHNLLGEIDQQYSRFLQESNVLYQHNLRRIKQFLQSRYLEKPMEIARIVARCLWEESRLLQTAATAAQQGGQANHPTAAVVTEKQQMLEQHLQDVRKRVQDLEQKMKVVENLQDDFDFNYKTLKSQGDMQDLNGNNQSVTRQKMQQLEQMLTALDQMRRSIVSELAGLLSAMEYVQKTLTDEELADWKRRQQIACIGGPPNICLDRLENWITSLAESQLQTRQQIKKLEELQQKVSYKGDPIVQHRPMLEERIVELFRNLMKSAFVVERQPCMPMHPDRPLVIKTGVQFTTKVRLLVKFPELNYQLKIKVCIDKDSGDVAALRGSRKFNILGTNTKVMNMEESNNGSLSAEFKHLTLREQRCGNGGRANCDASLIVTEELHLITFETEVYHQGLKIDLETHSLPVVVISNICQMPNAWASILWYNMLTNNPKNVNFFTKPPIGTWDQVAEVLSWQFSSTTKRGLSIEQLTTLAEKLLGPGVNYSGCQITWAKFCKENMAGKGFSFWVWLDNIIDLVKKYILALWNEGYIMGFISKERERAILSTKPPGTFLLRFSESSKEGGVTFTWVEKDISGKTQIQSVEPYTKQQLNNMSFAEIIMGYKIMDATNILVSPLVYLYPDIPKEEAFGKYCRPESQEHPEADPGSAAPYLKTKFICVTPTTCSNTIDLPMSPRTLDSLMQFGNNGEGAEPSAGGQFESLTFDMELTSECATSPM

[2] = target: T1, Signal transducer and activator of transcription 3; assay: Inhibitory concentration against signal transducer and activator of transcription 3 (stat3) by (EMSA) electrophoretic mobility shift assay

| IC50 [1] [nM] | SMILES | IC50 [2] [nM] |
| --- | --- | --- |
| – | CC(=O)N[C@@H](Cc1ccc(OP(=O)(O)O)cc1)C(=O)N[C@@H](CC(C)C)C(=O)N1CCC[C@H]1C(=O)N[C@@H](CCC(N)=O)C(=O)N[C@H](C(N)=O)[C@@H](C)O | 600 |
| – | CC(=O)N[C@@H](Cc1ccc(OP(=O)(O)O)cc1)C(=O)N[C@@H](CC(C)C)C(=O)N1CCC[C@H]1C(=O)N[C@@H](CCC(N)=O)C(N)=O (Ac-[pY]LPQ-NH2) | 1000 |
| > 100000 | CC(=O)N[C@@H](Cc1ccc(OP(=O)(O)O)cc1)C(=O)N[C@H](C(=O)N1CCC[C@H]1C(=O)N[C@@H](CCC(N)=O)C(=O)N[C@H](C(N)=O)[C@@H](C)O)C(c1ccccc1)c1ccccc1 (Ac-[pY][Dip]PQT-NH2) | – |
| > 100000 | CC(=O)N[C@@H](Cc1ccc(OP(=O)(O)O)cc1)C(=O)N(C)[C@@H](CC(C)C)C(=O)N1CCC[C@H]1C(=O)N[C@@H](CCC(N)=O)C(=O)N[C@H](C(N)=O)[C@@H](C)O (Ac-[pY][NMeL]PQT-NH2) | – |

| SMILES | IC50 [1] [nM] | IC50 [2] [nM] |
| --- | --- | --- |
| CC(=O)N[C@@H](Cc1ccc(OP(=O)(O)O)cc1)C(=O)N[C@@H](CC(C)C)C(=O)N1CCC[C@@H]1C(=O)N[C@@H](CCC(N)=O)C(=O)N[C@H](C(N)=O)[C@@H](C)O | > 100000 | – |
